# Test results published in patent US20190030009A1, “COMPOUNDS AND COMPOSITIONS FOR THE TREATMENT OF CRYPTOSPORIDIOSIS” (Novartis AG, priority 2016, published 2019).
# Columns and labels:
# Cryptosporidium parvum = assay: Cytopathic effect (CPE) based assay, C. parvum infected HCT-8 cells; settings: HCT-8 host cell viability (CellTiter-Glo), 48 hours treatment, read-out: Cp CPE EC50
# Method: Human ileocecal colorectal adenocarcinoma cells (HCT-8 [HRT-18] ATCC, CCL-34) were maintained in T-175 flasks (Corning, 431080) in complete growth medium (RPMI-1640 medium (Gibco, 11875) supplemented with 10% heat-inactivated horse serum (Gibco, 26050), 1×MEM non-essential amino acids (Gibco, 11140), 10 mM HEPES (Gibco, 15630), 100 units/mL penicillin, and 100 units/mL streptomycin) at 37° C. and 5% CO2 in a humidified incubator. Cultures were passaged twice weekly using 10 mL of 1×Phosphate-Buffered Saline (PBS) without Ca^2+ and Mg^2+ (Gibco, 20012) for washing and 3-5 mL per T-175 flask of TrypLE Express Enzyme (Gibco, 12604) for dissociation of adherent cells.
# Cryptosporidium parvum oocysts purchased from the Sterling Laboratory, University of Arizona (Iowa isolate) were purified from infected calf feces using discontinuous sucrose and cesium chloride centrifugation gradients and stored in PBS solution containing 0.01% Tween 20, 100 units/mL penicillin and 100 units/mL gentamicin.
# Excystation and infection protocols were developed following established methods with some modifications (Gut & Nelson, 1999, Upton et aL, 1995, Bessoff et aL, 2013). Briefly, oocysts were primed in 1 mL of 10 mM hydrochloric acid in 1× Hank's Balanced Salt Solution (HBSS) (Gibco, 14025) for 10 minutes with agitation at 1000 rpm, 37° C. on an Eppendorf thermomixer, then washed twice with 1 mL of room temperature non-acidic 1× HBSS by centrifugation at 13,000 rpm for 3 minutes at 25° C. Primed oocysts were further excysted at a concentration of 1×10^6 oocysts/μL in parasite infection medium consisting of a pre-warmed and pre-gassed 1:1 formulation of Leibovitz's L-15 medium (Gibco, 11415) and UltraCULTURE medium (Lonza, 12-725F) supplemented with 2 mM sodium taurocholate (Sigma, 86339-1), 10% heat-inactivated horse serum, and 200 μM L-ascorbic acid (Sigma, 95210) at 25° C. for 10 minutes. HCT-8 monolayer cells were infected with excysted cryptosporidium at a specified multiplicity of infection (MOI). All dilutions for subsequent assays were performed in parasite infection medium without sodium taurocholate. Pre-excysted oocysts were enumerated microscopically using a C-Chip disposable hemocytometer (NanoEnTek, DHC-N01).
# Compound powders were dissolved in neat DMSO (Fisher, D4121) to 10 mM and stored at 4° C. prior to dilution into source plates. Dilutions were carried out using a Microlab STAR liquid handler (Hamilton) to obtain compound source plates containing the ten-point or eight-point three fold dilutions starting from 10 mM in duplicates. Source plates were stored at 4° C. prior to spotting into assay plates. Before administration, all compound source plates were equilibrated to room temperature. A specified volume of compounds from source plate were spotted to assay plate using an Echo Acoustic liquid handler (LABCYTE, 550) so that the final DMSO concentration was less than 0.5%. Each assay plate a specified number of DMSO-treated negative control wells and a well-studied potent active compound at 100 nM as positive control. As a quality control, all positive and negative-control wells were used to calculate a Z′-value and signal to noise ratio (S:N) for each plate.
# Cryptosporidium spp are obligate-intracellular parasites that infect intestinal epithelial cells and the host cell is killed upon parasite egress. […] The loss of epithelial cells is due to both rapid parasite invasion/multiplication/egress and also pro-inflammatory immune response (Adams et al., 1994, Griffiths et al., 1994). We have observed a consistent cytopathic effect (CPE) in HCT-8 cells with C. spp infection the loss of viability of the host cells using CellTiter-Glo reagent.
# Confluent HCT-8 cells in T-175 flasks were directly infected with excysted oocysts at an MOI (host to parasite) of 1:2 for C. parvum and 1:4 for C. hominis. The number of host-cells is determined using a NucleoCounter (Chemometec, NC-100) in a control flask. […]
# [1] = Cytotoxicity against HepG2; format: cell-based; settings: human, HepG2 cells (ATCC HB-8065), 5 days exposure
# Method: Cytotoxicity against HepG2 (ATCC# HB-8065), a human liver cancer cell line, was determined as previously described earlier (Manjunatha et al., 2015). Briefly, cells were seeded at a density of 10^5 cells per well, incubated at 37° C. for 24 h and exposed to two-fold serially-diluted compounds for 5 days. Cell viability was monitored using the Cell Proliferation Kit II (Invitrogen). The cytotoxicity values of selected compounds are reported in the fifth column [HepG2 CC50 (μM)] of Table II.
Structure (SMILES),EC50 (Cryptosporidium parvum),CC50 at 5 days [1]
CNC(=O)c1ccc(-c2cnn3ccc(C(=O)N(c4ccc(C#N)cc4)C(C)C)cc23)cn1 [Example 146],0.329 µM,32.1 µM
CNC(=O)c1ccc(-c2cnn3ccc(C(=O)N(c4ccc(Cl)cc4)C4CC4)cc23)cn1 [Example 143],0.079 µM,17.5 µM
CNC(=O)c1ccc(-c2cnn3ccc(C(=O)N(c4ccc(C#N)cn4)C4CCC4)cc23)nc1 [Example 155],1.01 µM,> 50 µM
CNC(=O)c1ccc(-c2cnn3ccc(C(=O)N(c4ccc(C#N)cc4)C4CCC4)cc23)cn1 [Example 145],0.417 µM,16.8 µM
CNC(=O)c1ccc(-c2cnn3ccc(C(=O)N(C)c4ccc(C#N)cn4)cc23)cc1 [Example 75],0.066 µM,19.7 µM
N#Cc1ccc(N(C(=O)c2ccn3ncc(-c4ccc(C(N)=O)cn4)c3c2)C2CC2)cc1 [Example 142],0.379 µM,18.3 µM
CN(C(=O)c1ccn2ncc(-c3cnc(N)nc3)c2c1)c1ccc(C#N)cc1 [Example 83],0.487 µM,> 50 µM
CNC(=O)c1ccc(-c2cnn3ccc(C(=O)N(C)c4ccc(F)cc4)cc23)cc1 [Example 64],0.143 µM,4.84 µM
N#Cc1ccc(N(CCO)C(=O)c2ccn3ncc(-c4ccc(C(N)=O)cc4)c3c2)cc1 [Example 105],> 20 µM,> 50 µM
CNC(=O)c1ccc(-c2cnn3ccc(C(=O)N(c4ccc(C(F)(F)F)cn4)C4CC4)cc23)cc1 [Example 132],0.089 µM,17.3 µM
CNC(=O)c1ccc(-c2cnn3ccc(C(=O)N(c4ccc(C(N)=O)cn4)C4CC4)cc23)cc1 [Example 129],> 20 µM,> 50 µM
CNC(=O)c1ccc(-c2cnn3ccc(C(=O)N(c4ccc(C)cn4)C4CC4)cc23)cc1 [Example 136],0.43 µM,6.32 µM
CN(C(=O)c1ccc(C#N)cc1)c1ccn2ncc(-c3ccc(C(F)(F)F)cc3)c2c1 [Example 28],2.82 µM,9.9 µM
CN(C(=O)c1ccn2ncc(-c3ccc4c(cnn4C)c3)c2c1)c1ccc(C#N)cc1 [Example 17],0.058 µM,2.51 µM
CNC(=O)c1ccc(-c2cnn3ccc(C(=O)N(c4ccc(C#N)cn4)C(C)C)cc23)cn1 [Example 148],1.86 µM,20.1 µM
CNC(=O)c1ccc(-c2cnn3ccc(C(=O)N(c4ccc(C#N)cc4)C4CC4)cc23)cn1 [Example 137],0.35 µM,2.19 µM
CCN(C(=O)c1ccn2ncc(-c3ccc(S(C)(=O)=O)cc3)c2c1)c1ccc(C#N)cn1 [Example 158],3.75 µM,23 µM
CNCCNC(=O)c1ccc(-c2cnn3ccc(C(=O)N(C)c4ccc(C#N)cn4)cc23)cc1 [Example 114],9.13 µM,5.52 µM
CNC(=O)c1ccc(-c2cnn3ccc(C(=O)N(C)c4ccc(Cl)cc4)cc23)cc1 [Example 99],0.018 µM,6.51 µM
CCN(C(=O)c1ccn2ncc(-c3ccc(C(=O)NC)cc3)c2c1)c1ccc(F)cn1 [Example 95],0.63 µM,13 µM
CN(C(=O)c1ccn2ncc(-c3ccc(C(=O)O)cc3)c2c1)c1ccc(C#N)cn1 [Example 101],15.2 µM,> 50 µM
CN(C(=O)c1ccn2ncc(-c3ccc(C(=O)NCCN)cc3)c2c1)c1ccc(C#N)cn1 [Example 104],3.61 µM,> 50 µM
CN(C)C(=O)c1cc(-c2cnn3ccc(C(=O)N(C)c4ccc(C#N)cn4)cc23)cnc1N [Example 87],0.415 µM,> 50 µM
CNC(=O)c1ccc(-c2cnn3ccc(C(=O)N(c4ccc(C(F)(F)F)cn4)C4CCC4)cc23)cn1 [Example 161],0.775 µM,1.22 µM
CN(C)CCNC(=O)c1ccc(-c2cnn3ccc(C(=O)N(C)c4ccc(C#N)cn4)cc23)cc1 [Example 115],3.02 µM,2.7 µM
